According to patent US11000033B2, “Ketone or oxime compound, and herbicide” (NISSAN CHEMICAL CORPORATION, priority 2014, dated 2021):

Assays:
Format in all cases: in vivo
Veronica persica = experiment: Test Example 4: herbicidal effect by soil treatment (symbol R); conditions: application herbicide amount 320 g/ha
In short: (§1)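 Seeds were sown in sterilized diluvial soil, covered with about 1.5 cm of soil, and the soil surface was sprayed with a water-diluted emulsion of the compound at a predetermined rate. Plants grew in a greenhouse at 25° C. to 30° C.; effects were scored visually 3 weeks after application.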

Abutilon theophrasti = experiment: Test Example 5: herbicidal effect by foliage application, plastic box (symbol M); conditions: 320 g/ha, 3 weeks after application
In short: (§2)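 Sowing in sterilized diluvial soil, 14 days' greenhouse growth at 25° C. to 30° C., then uniform small-sprayer foliar application of aqueous emulsion dilution; plants scored three weeks afterwards.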

corn = experiment: Test Example 4: effect on crop by soil treatment (symbol c); conditions: application herbicide amount 320 g/ha
In short: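 The test used sterilized diluvial soil. Seed was set down in spots and overlaid with about 1.5 cm of soil before growth in a greenhouse kept at 25° C. to 30° C.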

Galium spurium = experiment: Test Example 5: herbicidal effect by foliage application, plastic box (symbol Q); conditions: 320 g/ha, 3 weeks after application
In short: as §2

[1] = tested on: Echinochloa oryzacola Vasing.; experiment: Test Example 1: herbicidal activity, application before weed generation in submerged conditions (symbol A); conditions: application herbicide amount 320 g/ha
In short: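 Compound emulsion was diluted to a set herbicide amount and applied to the water surface on the sowing day, into submerged (4 cm) alluvial-soil pots sown with mixed weed seeds and transplanted 2.5-leaf rice. Pots were held in a 25–30 °C greenhouse, and weeds were scored 0–5 by herbicidal ratio after 3 weeks.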

[2] = tested on: Echinochloa crus-galli var. crus-galli; experiment: Test Example 3: herbicidal effect by foliage application, Wagner pot (symbol H); conditions: application herbicide amount 320 g/ha
In short: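 Post-emergence, paddy-type test: seedlings 14 d old in shallow-flooded (0.1–0.5 cm) alluvial soil, 25–30 °C greenhouse. Emulsion diluted to target rate, sprayed on leaves. Read-out: visual effect on each species at 3 weeks, per set criteria.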

rice plant = experiment: Test Example 5: effect on crop by foliage application, plastic box (symbol b); conditions: 320 g/ha, 3 weeks after application
In short: (§3)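 Box culture: sterile diluvial soil, seeds spot-sown, ~1.5 cm cover, raised under glass at 25–30° C.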

transplanted rice plant = experiment: Test Example 1: effect on crop, application before weed generation in submerged conditions (symbol a); conditions: application herbicide amount 320 g/ha
In short: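 Alluvial soil pots flooded to 4 cm water, sown with Echinochloa oryzacola, Scirpus juncoides and Monochoria vaginalis, then transplanted with 2.5 leaf stage rice seedlings; pre-emergence application. Greenhouse 25° C. to 30° C.; scored 0–5 by herbicidal ratio 3 weeks after application.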

beet [3] = experiment: Test Example 4: effect on crop by soil treatment (symbol f); conditions: application herbicide amount 320 g/ha
In short: (§4)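 Greenhouse culture at 25° C. to 30° C. followed sowing of seed in spots on sterilized diluvial soil with a soil cover close to 1.5 cm thick.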

Alopecurus myosuroides = experiment: Test Example 5: herbicidal effect by foliage application, plastic box (symbol J); conditions: 320 g/ha, 3 weeks after application
In short: as §2

Stellaria media = experiment: Test Example 4: herbicidal effect by soil treatment (symbol P); conditions: application herbicide amount 320 g/ha
In short: as §1

wheat = experiment: Test Example 5: effect on crop by foliage application, plastic box (symbol e); conditions: 320 g/ha, 3 weeks after application
In short: as §3

beet [4] = experiment: Test Example 5: effect on crop by foliage application, plastic box (symbol f); conditions: 320 g/ha, 3 weeks after application
In short: as §3

soybean [5] = experiment: Test Example 5: effect on crop by foliage application, plastic box (symbol d); conditions: 320 g/ha, 3 weeks after application
In short: as §3

soybean [6] = experiment: Test Example 4: effect on crop by soil treatment (symbol d); conditions: application herbicide amount 320 g/ha
In short: as §4

| Structure (SMILES) | Herbicidal effect grade, R: Veronica persica (Veronica persica) | M: Abutilon theophrasti, herbicidal effect (criteria of Test Example 1) (Abutilon theophrasti) | Effect on crop grade, c: corn (corn) | Q: Galium spurium, herbicidal effect (criteria of Test Example 1) (Galium spurium) | Herbicidal effect grade, A: Echinochloa oryzacola Vasing. [1] | herbicidal effect on H (Echinochloa crus-galli var. crus-galli), grade 0-5 [2] | b: directly sowed rice plant, effect on crop (criteria of Test Example 1) (rice plant) | Effect grade on crop, a: transplanted rice plant (transplanted rice plant) | Effect on crop grade, f: beet (beet [3]) | J: Alopecurus myosuroides, herbicidal effect (criteria of Test Example 1) (Alopecurus myosuroides) | Herbicidal effect grade, P: Stellaria media (Stellaria media) | e: wheat, effect on crop (criteria of Test Example 1) (wheat) | f: beet, effect on crop (criteria of Test Example 1) (beet [4]) | d: soybean, effect on crop (criteria of Test Example 1) (soybean [5]) | Effect on crop grade, d: soybean (soybean [6]) | also measured |
| --- | --- | --- | --- | --- | --- | --- | --- | --- | --- | --- | --- | --- | --- | --- | --- | --- |
| CC(=O)CC1CC(O)=C(c2c(C)cc(OCc3ccccc3)cc2C)C1=O (stereo not drawn) [7-018] | 0 (Herbicidal ratio of 5% or lower (almost no effect)) | 0 (Herbicidal ratio of 5% or lower (almost no effect)) | 0 (Herbicidal ratio of 5% or lower (almost no effect)) | 0 (Herbicidal ratio of 5% or lower (almost no effect)) | 2 (Herbicidal ratio of 20% or higher and lower than 40%) | 3 (Herbicidal ratio of 40% or higher and lower than 70%) | 2 (Herbicidal ratio of 20% or higher and lower than 40%) | 2 (Herbicidal ratio of 20% or higher and lower than 40%) | 0 (Herbicidal ratio of 5% or lower (almost no effect)) | 0 (Herbicidal ratio of 5% or lower (almost no effect)) | 0 (Herbicidal ratio of 5% or lower (almost no effect)) | 0 (Herbicidal ratio of 5% or lower (almost no effect)) | 0 (Herbicidal ratio of 5% or lower (almost no effect)) | 0 (Herbicidal ratio of 5% or lower (almost no effect)) | 0 (Herbicidal ratio of 5% or lower (almost no effect)) |  |
| CON=C(C)CC1CC(O)=C(c2c(C)cc(-c3ccccn3)cc2C)C1=O (mixture of isomers) [6-051] |  |  |  |  | 4 (Herbicidal ratio of 70% or higher and lower than 90%) | 5 (Herbicidal ratio of 90% or more (almost completely withered)) |  | 5 (Herbicidal ratio of 90% or more (almost completely withered)) |  |  |  |  |  |  |  | R: Veronica persica, herbicidal effect grade (Veronica persica): 0 (Herbicidal ratio of 5% or lower (almost no effect)); M: Abutilon theophrasti, herbicidal effect grade (Abutilon theophrasti): 1 (Herbicidal ratio of 5% or higher and lower than 20%); c: corn, effect on crop grade (corn): 1 (Herbicidal ratio of 5% or higher and lower than 20%); Q: Galium spurium, herbicidal effect grade (Galium spurium): 4 (Herbicidal ratio of 70% or higher and lower than 90%); b: directly sowed rice plant, effect on crop grade (rice plant): 5 (Herbicidal ratio of 90% or more (almost completely withered)); f: beet, effect on crop grade (beet [3]): 0 (Herbicidal ratio of 5% or lower (almost no effect)); J: Alopecurus myosuroides, herbicidal effect grade (Alopecurus myosuroides): 5 (Herbicidal ratio of 90% or more (almost completely withered)); P: Stellaria media, herbicidal effect grade (Stellaria media): 2 (Herbicidal ratio of 20% or higher and lower than 40%); e: wheat, effect on crop grade (wheat): 4 (Herbicidal ratio of 70% or higher and lower than 90%); f: beet, effect on crop grade (beet [4]): 3 (Herbicidal ratio of 40% or higher and lower than 70%); d: soybean, effect on crop grade (soybean [5]): 1 (Herbicidal ratio of 5% or higher and lower than 20%); d: soybean, effect on crop grade (soybean [6]): 1 (Herbicidal ratio of 5% or higher and lower than 20%) |
| COc1ccc(-c2cc(C)c(C3=C(O)CC(CC(C)=O)C3=O)c(C)c2)cc1 (stereo not drawn) [7-006] | 0 (Herbicidal ratio of 5% or lower (almost no effect)) | 0 (Herbicidal ratio of 5% or lower (almost no effect)) | 0 (Herbicidal ratio of 5% or lower (almost no effect)) | 0 (Herbicidal ratio of 5% or lower (almost no effect)) | 3 (Herbicidal ratio of 40% or higher and lower than 70%) | 5 (Herbicidal ratio of 90% or more (almost completely withered)) | 5 (Herbicidal ratio of 90% or more (almost completely withered)) | 2 (Herbicidal ratio of 20% or higher and lower than 40%) | 0 (Herbicidal ratio of 5% or lower (almost no effect)) | 3 (Herbicidal ratio of 40% or higher and lower than 70%) | 0 (Herbicidal ratio of 5% or lower (almost no effect)) | 0 (Herbicidal ratio of 5% or lower (almost no effect)) | 0 (Herbicidal ratio of 5% or lower (almost no effect)) | 0 (Herbicidal ratio of 5% or lower (almost no effect)) | 1 (Herbicidal ratio of 5% or higher and lower than 20%) |  |
| CC(=O)CC1CC(O)=C(c2c(C)cc(-n3cccn3)cc2C)C1=O (stereo not drawn) [7-024] | 0 (Herbicidal ratio of 5% or lower (almost no effect)) | 0 (Herbicidal ratio of 5% or lower (almost no effect)) | 0 (Herbicidal ratio of 5% or lower (almost no effect)) | 0 (Herbicidal ratio of 5% or lower (almost no effect)) | 2 (Herbicidal ratio of 20% or higher and lower than 40%) | 5 (Herbicidal ratio of 90% or more (almost completely withered)) | 3 (Herbicidal ratio of 40% or higher and lower than 70%) | 2 (Herbicidal ratio of 20% or higher and lower than 40%) | 0 (Herbicidal ratio of 5% or lower (almost no effect)) | 2 (Herbicidal ratio of 20% or higher and lower than 40%) | 0 (Herbicidal ratio of 5% or lower (almost no effect)) | 0 (Herbicidal ratio of 5% or lower (almost no effect)) | 0 (Herbicidal ratio of 5% or lower (almost no effect)) | 0 (Herbicidal ratio of 5% or lower (almost no effect)) | 0 (Herbicidal ratio of 5% or lower (almost no effect)) |  |
| CON=C(C)CC1CC(O)=C(c2c(C)cc(-c3cc(F)c(F)c(F)c3)cc2C)C1=O (stereo not drawn) [6-104] | 4 (Herbicidal ratio of 70% or higher and lower than 90%) | 5 (Herbicidal ratio of 90% or more (almost completely withered)) | 5 (Herbicidal ratio of 90% or more (almost completely withered)) | 4 (Herbicidal ratio of 70% or higher and lower than 90%) | 5 (Herbicidal ratio of 90% or more (almost completely withered)) | 5 (Herbicidal ratio of 90% or more (almost completely withered)) | 5 (Herbicidal ratio of 90% or more (almost completely withered)) | 5 (Herbicidal ratio of 90% or more (almost completely withered)) | 4 (Herbicidal ratio of 70% or higher and lower than 90%) | 5 (Herbicidal ratio of 90% or more (almost completely withered)) | 3 (Herbicidal ratio of 40% or higher and lower than 70%) | 5 (Herbicidal ratio of 90% or more (almost completely withered)) | 4 (Herbicidal ratio of 70% or higher and lower than 90%) | 3 (Herbicidal ratio of 40% or higher and lower than 70%) | 0 (Herbicidal ratio of 5% or lower (almost no effect)) |  |
